Test system: CT26 murine colon carcinoma cells
Assay: Mean Tumor Volume Assay, CT26 (Example 3)
Assay type: in vivo, BALB/c mice
Conditions: anti-mCD40 5 mpk, anti-CSF1R 10 mpk i.p. Days 1, 5, 9, 13
Experimental: The assay was run using female BALB/c mice (BALB/c AnNcr1, Charles River).
CT26 murine colon carcinoma cells were grown in RPMI-1640 medium containing 10% fetal bovine serum, 2 mM glutamine, 100 units/mL penicillin G sodium, 100 μg/mL streptomycin sulfate, and 25 μg/mL gentamicin. The cells were cultured in tissue culture flasks in a humidified incubator at 37° C., in an atmosphere of 5% CO2 and 95% air.
The CT26 colon cells used for implantation were harvested during log phase growth and re-suspended in cold phosphate buffered saline (PBS).
Each mouse was injected subcutaneously in the right flank with 1×10^6 tumor cells (0.1 mL cell suspension) and tumors were monitored as their volumes approached the target range of 75 to 125 mm^3. Day 1 of the study, animals with individual tumor volumes ranging from 75 to 125 mm^3 were randomized into six different groups (n=12).
The compound of formula of formula (I), rat IgG2a (Clone 2A3) (5.55 mg/mL), anti-CSF1R (purchased from BioXCell anti-mouse CSF1R (CD115), Clone: AFS98, SKU: BE0213, Lot No. 5248/0814) and anti-mCD40 (purchased from BioXCell, anti-mouse CD40, Clone: FGK45, SKU: 13E0016-2-) were used as test compounds, alone or in combination. The compound of formula (I) was stored at room temperature and antibody stock solutions were stored at 4° C. upon receipt. The compound of formula (I) was dissolved in 0.5% HPMC to yield a 1.0 mg/mL dosing solution. The dosing solution was stored at 4° C., protected from light. The rat IgG2a isotype, anti-CD40 and anti-CSF1R dosing solutions were prepared once at the beginning of study by diluting aliquots of the stock solutions with PBS. The dosing solution was stored at 4° C., protected from light.
On Day 1 of the study, groups of BALB/c mice (n=12/group) began dosing according to the following protocol
The vehicle (0.5% HPMC) and compound of formula (I) were administered orally (p.o.). The rat IgG2a isotype control, anti-mCD40 and anti-CSF1R were administered intraperitoneally (i.p.). Rat IgG2a(2A3), the anti-CSF1R and compound of formula (I) were administered at 10 mg/kg. The anti-mCD40 was administered at 5 mg/kg. The dosing volume for all animals was 10 mL/kg (0.2 mL per 20-g mouse) and was adjusted for body weight.

CC1(C)CC=C(c2nc(C3CC(C)(C)OC(C)(C)C3)ccc2NC(=O)c2nc(C#N)c[nH]2)CC1 [compound of formula (I), 4-cyano-N-(2-(4,4-dimethylcyclohex-1-en-1-yl)-6-(2,2,6,6-tetramethyltetrahydro-2H-pyran-4-yl)pyridin-3-yl)-1H-imidazole-2-carboxamide]
Group Mean Tumor Volume, Day 6 (Day 6, formula (I) 10 mpk b.i.d. × 14 days p.o.): 107.69 mm^3
% Tumor Growth Inhibition, Day 6 (Day 6, relative to Group 1 control, formula (I) 10 mpk b.i.d. × 14 days p.o.): −0.86%
Group Mean Tumor Volume, Day 8 (Day 8, formula (I) 10 mpk b.i.d. × 14 days p.o.): 130.14 mm^3
% Tumor Growth Inhibition, Day 8 (Day 8, relative to Group 1 control, formula (I) 10 mpk b.i.d. × 14 days p.o.): −6.79%
Group Mean Tumor Volume, Day 10 (Day 10, formula (I) 10 mpk b.i.d. × 14 days p.o.): 196.09 mm^3
% Tumor Growth Inhibition, Day 10 (Day 10, relative to Group 1 control, formula (I) 10 mpk b.i.d. × 14 days p.o.): −24.44%
Group Mean Tumor Volume, Day 13 (Day 13, formula (I) 10 mpk b.i.d. × 14 days p.o.): 268.17 mm^3
% Tumor Growth Inhibition, Day 13 (Day 13, relative to Group 1 control, formula (I) 10 mpk b.i.d. × 14 days p.o.): −1.27%
Group Mean Tumor Volume, Day 15 (Day 15, formula (I) 10 mpk b.i.d. × 14 days p.o.): 392.41 mm^3
% Tumor Growth Inhibition, Day 15 (Day 15, relative to Group 1 control, formula (I) 10 mpk b.i.d. × 14 days p.o.): 5.39%
Group Mean Tumor Volume, Day 16 (Day 16, formula (I) 10 mpk b.i.d. × 14 days p.o.): 412.91 mm^3
% Tumor Growth Inhibition, Day 16 (Day 16, relative to Group 1 control, formula (I) 10 mpk b.i.d. × 14 days p.o.): −2.37%
Group Mean Tumor Volume, Day 20 (Day 20, formula (I) 10 mpk b.i.d. × 14 days p.o.): 739.49 mm^3
% Tumor Growth Inhibition, Day 20 (Day 20, relative to Group 1 control, formula (I) 10 mpk b.i.d. × 14 days p.o.): 16.42%
